According to patent US20150141411A1, “SUBSTITUTED 3,4-DIHYDRO-2H-PYRIDO[1,2-A]PYRAZINE-1,6-DIONE DERIVATIVES USEFUL FOR THE TREATMENT OF (INTER ALIA) ALZHEIMER'S DISEASE” (Janssen Pharmaceuticals, Inc., priority 2012, published 2015):
Where a name gives a salt, the structure may show the parent alone.

Legend:
γ-secretase [1] = molecular target: T1, γ-secretase (Homo sapiens, UniProt P49768); assay: Screening for γ-secretase-modulating activity: Aβtotal in supernatant of SKNBE2 cells carrying hAPP 695 wild type (Alphalisa); assay type: cell-based; conditions: SKNBE2 human neuroblastoma cells carrying hAPP 695 wild type, overnight incubation, Aβtotal in cell supernatant
T1 construct: endogenous in cells; host or cells: SKNBE2 human neuroblastoma cells (carrying hAPP 695 wild type as substrate)
Experimental: (§1) Screening was carried out using SKNBE2 human neuroblastoma cells carrying the hAPP 695—wild type, grown in Dulbecco's Modified Eagle's Medium/Nutrient mixture F-12 (DMEM/NUT-mix F-12) (HAM) provided by Invitrogen (cat no. 10371-029) containing 5% Serum/Fe supplemented with 1% non-essential amino acids, 1-glutamine 2 mM, Hepes 15 mM, penicillin 50 U/ml (units/ml) en streptomycin 50 μg/ml. Cells were grown to near confluency.
(§2) The screening was performed using a modification of the assay as described in Citron et al (1997) Nature Medicine 3: 67. Briefly, cells were plated in a 384-well plate at 10^4 cells/well in Ultraculture (Lonza, BE12-725F) supplemented with 1% glutamine (Invitrogen, 25030-024), 1% non-essential amino acid (NEAA), penicillin 50 U/ml en streptomycin 50 μg/ml in the presence of test compound at different test concentrations. The cell/compound mixture was incubated overnight at 37° C., 5% CO2. The next day the media were assayed by two sandwich immuno-assays, for Aβ42 and Aβ total.
(§3) Aβtotal and Aβ42 concentrations were quantified in the cell supernatant using the Aphalisa technology (Perkin Elmer). Alphalisa is a sandwich assay using biotinylated antibody attached to streptavidin coated donorbeads and antibody conjugated to acceptor beads. In the presence of antigen, the beads come into close proximity. The excitation of the donor beads provokes the release of singlet oxygen molecules that trigger a cascade of energy transfer in the acceptor beads, resulting in light emission. To quantify the amount of Aβ42 in the cell supernatant, monoclonal antibody specific to the C-terminus of Aβ42 (JRF/cAβ42/26) was coupled to the receptor beads and biotinylated antibody specific to the N-terminus of Aβ (JRF/AβN/25) was used to react with the donor beads. To quantify the amount of Aβtotal in the cell supernatant, monoclonal antibody specific to the N-terminus of Aβ (JRF/AβN/25) was coupled to the receptor beads and biotinylated antibody specific to the mid region of Aβ (biotinylated 4G8) was used to react with the donor beads.
(§4) To obtain the values reported in Table 3, the data are calculated as percentage of the maximum amount of amyloid Beta 42 measured in the absence of the test compound. The sigmoidal dose response curves were analyzed using non-linear regression analysis with percentage of the control plotted against the log concentration of the compound. A 4-parameter equation was used to determine the IC50.

γ-secretase [2] = molecular target: T1, γ-secretase; assay: Screening for γ-secretase-modulating activity: Aβ42 in supernatant of SKNBE2 cells carrying hAPP 695 wild type (Alphalisa); assay type: cell-based; conditions: SKNBE2 human neuroblastoma cells carrying hAPP 695 wild type, overnight incubation, Aβ42 in cell supernatant
Experimental: as §1, §2, §3, §4

melting point [°C] | IC50 (γ-secretase [1]) [µM] | IC50 (γ-secretase [2]) [nM] | SMILES
208.3 | – | – | Cc1cn(-c2ccc3n(c2=O)C[C@@H](C)N(Cc2cc(C(F)(F)F)ccc2C)C3=O)cn1 (as salt: HCl) [compound 72]
185.3 | – | – | Cc1cn(-c2ccc3n(c2=O)C[C@@H](C)N(Cc2cc(N4CCCCC4)cc(C(F)(F)F)c2)C3=O)cn1 (as salt: HCl) [compound 86]
116.9 | – | – | Cc1cn(-c2ccc3n(c2=O)C[C@@H](C)N(Cc2cc(OC(C)C)nc(C(F)(F)F)c2)C3=O)cn1 (as salt: HCl) [compound 128]
136 | – | – | Cc1cn(-c2ccc3n(c2=O)C[C@@H](C)N(Cc2cc(CC(F)(F)F)cc(C(F)(F)F)c2)C3=O)cn1 (as salt: HCl) [compound 134]
195.9 | – | – | Cc1cn(-c2ccc3n(c2=O)C[C@@H](C)N(Cc2cc(F)cc(OC(F)(F)F)c2)C3=O)cn1 (as salt: HCl) [compound 139]
115.2 | – | – | Cc1cn(-c2ccc3n(c2=O)C[C@@H](C)N(Cc2cc(OC(F)(F)F)cc(C(F)(F)F)c2)C3=O)cn1 (as salt: HCl) [compound 140]
204.5 | – | – | Cc1cn(-c2ccc3n(c2=O)C[C@@H](C)N(Cc2cc(Br)cc(C(F)(F)F)c2)C3=O)cn1 (as salt: HCl) [compound 145]
137.5 | – | – | Cc1cn(-c2ccc3n(c2=O)C[C@@H](C)N(Cc2cc(OCC(F)(F)F)cc(C(F)(F)F)c2)C3=O)cn1 (as salt: HCl) [compound 166]
190 | – | – | Cc1cn(-c2ccc3n(c2=O)C[C@@H](C)N(Cc2cn(C)c4ccc(OC(F)(F)F)cc24)C3=O)cn1 (as salt: HCl) [compound 253]
146.2 | – | – | CCC(c1cc(OC)cc(C(F)(F)F)c1)N1C(=O)c2ccc(-n3cnc(C)c3)c(=O)n2C[C@H]1C (single isomer, unassigned) (as salt: HCl) [compound 141]
141.4 | – | – | CCC(c1cc(OC)cc(C(F)(F)F)c1)N1C(=O)c2ccc(-n3cnc(C)c3)c(=O)n2C[C@H]1C (single isomer, unassigned) (as salt: HCl) [compound 142]
229.3 | – | – | CCOc1cc(C(C)N2C(=O)c3ccc(-n4cnc(C)c4)c(=O)n3C[C@H]2C)cc(C(F)(F)F)c1 (single isomer, unassigned) (as salt: HCl) [compound 143]
194.4 | – | – | CCOc1cc(C(C)N2C(=O)c3ccc(-n4cnc(C)c4)c(=O)n3C[C@H]2C)cc(C(F)(F)F)c1 (single isomer, unassigned) (as salt: HCl) [compound 144]
– | 6.61 | 10 | Cc1cn(-c2ccc3n(c2=O)C[C@@H](C)N(Cc2c(C)[nH]c4ccc(C(F)(F)F)cc24)C3=O)cn1 [compound 180]
– | > 10 | 20 | CCn1cc(CN2C(=O)c3ccc(-n4cnc(C)c4)c(=O)n3CC2C)c2ccc(C(F)(F)F)cc21 (stereo not drawn) [compound 225]
– | 2.19 | 10 | CCn1cc(CN2C(=O)c3ccc(-n4cnc(C)c4)c(=O)n3C[C@H]2C)c2cc(C(F)(F)F)ccc21 [compound 227]
– | 4 | 9 | Cc1cn(-c2ccc3n(c2=O)C[C@@H](C)N(Cc2cn(C)c4cc(F)c(C(F)(F)F)cc24)C3=O)cn1 [compound 238]
– | 4 | 6 | Cc1cn(-c2ccc3n(c2=O)C[C@@H](C)N(Cc2cn(C)c4c(F)cc(C(F)(F)F)cc24)C3=O)cn1 [compound 241]
– | 5 | 10 | Cc1cn(-c2ccc3n(c2=O)C[C@@H](C)N(Cc2c[nH]c4ccc(OC(F)(F)F)cc24)C3=O)cn1 [compound 252]
– | 5 | 9 | Cc1cn(-c2ccc3n(c2=O)C[C@@H](C)N(Cc2cn(C)c4ccc(OC(F)(F)F)cc24)C3=O)cn1 [compound 253]
– | > 10 | 40 | Cc1cn(-c2ccc3n(c2=O)C[C@@H](C)N(Cc2c[nH]c4c(C(F)(F)F)cc(F)cc24)C3=O)cn1 [compound 257]
– | 9 | 20 | Cc1cn(-c2ccc3n(c2=O)C[C@@H](C)N(Cc2cn(C)c4cc(C(F)(F)F)c(F)cc24)C3=O)cn1 [compound 258]
– | > 10 | 60 | Cc1cn(-c2ccc3n(c2=O)C[C@@H](C)N(Cc2cn(C)c4c(C(F)(F)F)cc(F)cc24)C3=O)cn1 [compound 261]

Further lines, the compound ahead of its results:

SMILES | melting point [°C] | IC50 (γ-secretase [1]) [µM] | IC50 (γ-secretase [2]) [nM]
Cc1cn(-c2ccc3n(c2=O)C[C@@H](C)N(Cc2cccc(Cl)c2)C3=O)cn1 (as salt: HCl) [compound 24] | 184.6 | – | –
Cc1cn(-c2ccc3n(c2=O)C[C@@H](C)N(Cc2cc(N4CCC(C)CC4)ccc2Cl)C3=O)cn1 (as salt: HCl) [compound 80] | 235.1 | – | –
Cc1cn(-c2ccc3n(c2=O)C[C@@H](C)N(Cc2cc(N4CCC(C(F)(F)F)CC4)ccc2Cl)C3=O)cn1 (as salt: HCl) [compound 81] | 160.6 | – | –
Cc1cn(-c2ccc3n(c2=O)C[C@@H](C)N(Cc2cc(N4CCCC4)ccc2Cl)C3=O)cn1 (as salt: HCl) [compound 82] | 233.6 | – | –
Cc1cn(-c2ccc3n(c2=O)C[C@@H](C)N(Cc2ccc(C)c(-n4cccn4)c2)C3=O)cn1 (as salt: HCl) [compound 114] | 126.9 | – | –
Cc1cn(-c2ccc3n(c2=O)C[C@@H](C)N(Cc2cc(OC(C)C)c(Cl)cc2F)C3=O)cn1 (as salt: HCl) [compound 163] | 103.1 | – | –
Cc1cn(-c2ccc3n(c2=O)C[C@@H](C)N(Cc2ccc(C(F)(F)F)c(N4CCCCC4)c2)C3=O)cn1 (as salt: HCl) [compound 171] | 130.6 | – | –
Cc1cn(-c2ccc3n(c2=O)C[C@@H](C)N(CCc2cccc(Cl)c2Cl)C3=O)cn1 (as salt: HCl) [compound 231] | 218 | – | –
Cc1cn(-c2ccc3n(c2=O)C[C@@H](C)N(C(C)c2cc(CC4CC4)cc(C(F)(F)F)c2)C3=O)cn1 (single isomer, unassigned) (as salt: HCl) [compound 135] | 213.2 | – | –
Cc1cn(-c2ccc3n(c2=O)CC(C)N(Cc2cn(C)c4cc(Br)ccc24)C3=O)cn1 (stereo not drawn) [compound 177] | – | > 10 | 40
Cc1cn(-c2ccc3n(c2=O)CC(C)N(Cc2c[nH]c4cc(Cl)ccc24)C3=O)cn1 (stereo not drawn) [compound 179] | – | > 10 | 70
Cc1cn(-c2ccc3n(c2=O)CC(C)N(Cc2c(C)n(C)c4ccc(C(F)(F)F)cc24)C3=O)cn1 (stereo not drawn) [compound 181] | – | 4.57 | 10
CCn1c(C)c(CN2C(=O)c3ccc(-n4cnc(C)c4)c(=O)n3C[C@H]2C)c2cc(C(F)(F)F)ccc21 [compound 182] | – | 2.51 | 10
Cc1cn(-c2ccc3n(c2=O)C[C@@H](C)N(Cc2c[nH]c4c(I)cccc24)C3=O)cn1 [compound 197] | – | > 10 | 60
Cc1cn(-c2ccc3n(c2=O)CC(C)N(Cc2cn(-c4ccccc4)c4cc(Br)ccc24)C3=O)cn1 (stereo not drawn) [compound 199] | – | 9.78 | 20
Cc1cn(-c2ccc3n(c2=O)CC(C)N(C2CCc4ccc(C(F)(F)F)cc42)C3=O)cn1 (stereo not drawn) [compound 204] | – | > 10 | 120
Cc1cn(-c2ccc3n(c2=O)CC(C)N(C2CCc4ccc(C(F)(F)F)cc42)C3=O)cn1 (stereo not drawn) [compound 205] | – | > 10 | 240
COc1ccc2c(c1)c(CN1C(=O)c3ccc(-n4cnc(C)c4)c(=O)n3CC1C)cn2C(C)C (stereo not drawn) [compound 222] | – | > 10 | 60
Cc1cn(-c2ccc3n(c2=O)C[C@@H](C)N(CCc2cccc(Cl)c2Cl)C3=O)cn1 [compound 231] | – | > 10 | 260
Cc1cn(-c2ccc3n(c2=O)C[C@@H](C)N(Cc2cn(C)c4cc(F)ccc24)C3=O)cn1 [compound 242] | – | > 10 | 260
Cc1cn(-c2ccc3n(c2=O)C[C@@H](C)N(Cc2cn(C)c4ccc(C5CC5)cc24)C3=O)cn1 [compound 246] | – | 7 | 20
CCn1cc(CN2C(=O)c3ccc(-n4cnc(C)c4)c(=O)n3C[C@H]2C)c2cc(C3CC3)ccc21 [compound 247] | – | 6 | 10
CCn1cc(CN2C(=O)c3ccc(-n4cnc(C)c4)c(=O)n3C[C@H]2C)c2cc(C)ccc21 [compound 250] | – | > 10 | 50
Cc1ccc2c(c1)c(CN1C(=O)c3ccc(-n4cnc(C)c4)c(=O)n3C[C@H]1C)cn2CC(F)(F)F [compound 262] | – | > 10 | 20
